{"source": "patent US12234463B2", "about": "“Engineered microorganisms with G3P → 3PG enzyme and/or fructose-1,6-bisphosphatase including those having synthetic or enhanced methylotrophy” (Genomatica, Inc., priority 2018, dated 2025)", "key": {"[1]": {"test_system": "E. coli transketolase A (TktA)", "details": "ref. [3], cited from earlier work"}, "[2]": {"test_system": "E. coli fructose-6-phosphate aldolase (F6P aldolase, fsa) variant A129S", "details": "cited from earlier work"}, "[3]": {"test_system": "E. coli fructose-6-phosphate aldolase (F6P aldolase, fsa), wild type", "details": "cited from earlier work; for Km: purified enzyme"}, "[4]": {"test_system": "dihydroxyacetone synthase from Mycobacter sp. strain JC1 DSM 3803", "details": "cited from earlier work"}, "[5]": {"test_system": "B. methanolicus transketolase", "details": "ref. [2] Markert et al., cited from earlier work"}, "[6]": {"target": "T1, Bacillus methanolicus MGA3 GapN (NADP-dependent glyceraldehyde-3-phosphate dehydrogenase), cds 10663A (Bacillus methanolicus, UniProt I3EBG2)", "T1 sequence (I3EBG2 1-481)": "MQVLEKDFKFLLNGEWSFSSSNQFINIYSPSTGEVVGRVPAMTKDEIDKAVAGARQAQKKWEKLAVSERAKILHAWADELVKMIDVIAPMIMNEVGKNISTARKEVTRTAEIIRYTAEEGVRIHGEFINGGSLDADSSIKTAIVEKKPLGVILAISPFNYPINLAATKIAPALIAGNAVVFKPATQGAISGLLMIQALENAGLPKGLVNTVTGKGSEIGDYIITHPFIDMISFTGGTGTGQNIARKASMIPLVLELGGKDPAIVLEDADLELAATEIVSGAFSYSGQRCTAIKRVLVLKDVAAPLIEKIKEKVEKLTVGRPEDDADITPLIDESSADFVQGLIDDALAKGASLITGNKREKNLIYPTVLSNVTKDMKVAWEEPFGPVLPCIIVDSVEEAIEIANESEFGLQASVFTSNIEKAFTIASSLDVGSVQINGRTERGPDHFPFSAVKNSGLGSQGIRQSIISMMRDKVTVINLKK", "assay": "GapN vs. GapA kinetic comparison: catalytic constants of BM MGA3 GapN (cds 10663A, Table 18)", "format": "biochemical", "details": "fixed NADP; G3P varied"}, "[7]": {"target": "T2, Bacillus methanolicus PB1 GapN (NADP-dependent glyceraldehyde-3-phosphate dehydrogenase), cds 10662A (Bacillus methanolicus, UniProt I3E1I1)", "T2 sequence (I3E1I1 1-481)": "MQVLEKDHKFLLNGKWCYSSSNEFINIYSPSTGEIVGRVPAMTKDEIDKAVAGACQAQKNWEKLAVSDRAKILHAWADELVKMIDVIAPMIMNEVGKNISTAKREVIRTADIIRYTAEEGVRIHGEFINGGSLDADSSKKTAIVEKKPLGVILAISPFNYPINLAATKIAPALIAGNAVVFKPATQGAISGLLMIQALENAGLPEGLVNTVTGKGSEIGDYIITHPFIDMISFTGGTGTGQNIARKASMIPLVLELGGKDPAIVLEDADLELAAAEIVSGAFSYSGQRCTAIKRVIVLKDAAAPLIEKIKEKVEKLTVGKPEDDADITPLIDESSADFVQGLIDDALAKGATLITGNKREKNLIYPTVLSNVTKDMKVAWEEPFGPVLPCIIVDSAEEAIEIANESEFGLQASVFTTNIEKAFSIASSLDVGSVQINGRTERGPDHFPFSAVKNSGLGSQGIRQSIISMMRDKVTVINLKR", "assay": "GapN vs. GapA kinetic comparison: catalytic constants of BM PB1 GapN (cds 10662A, Table 18)", "format": "biochemical", "details": "fixed NADP; G3P varied"}, "[8]": {"test_system": "E. coli ribose 5-phosphate isomerase A (RpiA)", "details": "read-out: Michaelis constant for ribose 5-phosphate; cited from earlier work"}, "[9]": {"test_system": "E. coli ribose 5-phosphate isomerase B (RpiB)", "details": "read-out: Michaelis constant for ribose 5-phosphate; cited from earlier work"}, "[10]": {"details": "reaction products, read-out: KM (products)"}, "[11]": {"details": "reaction substrates, read-out: KM (substrates)"}, "[12]": {"details": "fold reduction compared to wild type enzyme"}}, "note": "Read-outs that look alike come from different tables or passages of the source."}
{"smiles": "O=C[C@H](O)[C@H](O)COP(=O)(O)O", "values": [{"measurement": "Km", "setting": "[1]; [10]", "result": 0.09, "unit": "mM"}]}
{"smiles": "O=C(CO)CO", "note": "[dihydroxyacetone]", "values": [{"measurement": "improved reactivity towards DHA in terms of Kcat/Km", "setting": "[2]; fold improvement", "result": "over 17 fold"}, {"measurement": "Km", "setting": "[3]", "result": 35, "unit": "mM"}]}
{"smiles": "C=O", "note": "[formaldehyde]", "values": [{"measurement": "Km", "setting": "[4]; read-out: Km for formaldehyde", "result": 1860, "unit": "µM"}]}
{"smiles": "O=P(O)(O)OC[C@H]1OC(O)(CO)[C@@H](O)[C@@H]1O", "note": "(stereo partly shown) [fructose 6-phosphate]", "values": [{"measurement": "Km", "setting": "[1]; [11]", "result": 1.1, "unit": "mM"}, {"measurement": "Vmax for fructose 6-phosphate cleavage", "setting": "[3]; 30 degrees C., pH 8.5, 50 mm glycylglycine buffer", "result": "7 units/mg of protein"}, {"measurement": "Km", "setting": "[3]", "result": 9, "unit": "mM"}, {"measurement": "Km", "setting": "[5]; [11]", "result": 720, "unit": "µM"}]}
{"smiles": "O=C[C@H](O)COP(=O)(O)O", "note": "[glyceraldehyde 3-phosphate]", "values": [{"measurement": "Km", "setting": "[6]", "result": "1.6 ± 0.1", "unit": "mM"}, {"measurement": "kcat (G3P)", "setting": "[6]", "result": "9.5 ± 0.8", "unit": "S^−1"}, {"measurement": "Km", "setting": "[7]", "result": "1.1 ± 0.3", "unit": "mM"}, {"measurement": "kcat (G3P)", "setting": "[7]", "result": "8.9 ± 0.8", "unit": "S^−1"}, {"measurement": "Km", "setting": "[1]; [11]", "result": 2.1, "unit": "mM"}, {"measurement": "Km", "setting": "[3]", "result": 0.8, "unit": "mM"}, {"measurement": "Km", "setting": "[5]; [11]", "result": 920, "unit": "µM"}]}
{"smiles": "O=CCO", "note": "[glycoaldehyde]", "values": [{"measurement": "reduced affinity for glycoaldehyde", "setting": "[2]; [12]", "result": "more than 3 fold"}]}
{"smiles": "CC(=O)CO", "note": "[hydroxyacetone]", "values": [{"measurement": "reduced catalytic efficiency on hydroxyacetone", "setting": "[2]; [12]", "result": "more than 3 fold"}]}
{"smiles": "O=P(O)(O)OC[C@H]1OC(O)[C@H](O)[C@@H]1O", "note": "(stereo partly shown) [ribose 5-phosphate]", "values": [{"measurement": "Km", "setting": "[8]", "result": 4.4, "unit": "mM"}, {"measurement": "Km", "setting": "[9]", "result": 830, "unit": "µM"}, {"measurement": "Km", "setting": "[1]; [10]", "result": 1.4, "unit": "mM"}, {"measurement": "Km", "setting": "[5]; [10]", "result": 120, "unit": "µM"}]}
{"smiles": "O=C(CO)[C@@H](O)[C@H](O)[C@H](O)[C@H](O)COP(=O)(O)O", "note": "[sedoheptulose 7-phosphate]", "values": [{"measurement": "Km", "setting": "[1]; [11]", "result": 4, "unit": "mM"}]}
{"smiles": "O=C(CO)[C@@H](O)[C@H](O)COP(=O)(O)O", "note": "[xylulose 5-phosphate]", "values": [{"measurement": "Km", "setting": "[4]; read-out: Km for xylulose 5-phosphate", "result": 33.3, "unit": "µM"}, {"measurement": "Km", "setting": "[1]; [10]", "result": 0.16, "unit": "mM"}, {"measurement": "Km", "setting": "[5]; [10]", "result": 150, "unit": "µM"}]}
